The source of these data is patent EP4796538A1, “NOVEL QUINOXALINE COMPOUNDS, MANUFACTURING METHOD THEREOF, AND USES THEREOF” (Gachon University of Industry-Academic Cooperation …, priority 2023, dated 2025).

One test addresses T1, RET(G810R) (Homo sapiens, UniProt P07949, G810R).
T1 construct: purchased Reaction Biology Corp
Briefly: Kinase panel inhibition, radiolabeled [γ-33P] ATP (Reaction Biology Corp). The following applies: compound at 0.1 uM; ATP 10 µM; read-out: % Enzyme Activity (relative to DMSO controls) G810R. The class given is biochemical.

The target in the next test is T2, RET-CCDC6 (PTC1) (Homo sapiens, UniProt P07949).
T2 construct: purchased Reaction Biology Corp
T2 sequence (P07949 whole entry, looked up): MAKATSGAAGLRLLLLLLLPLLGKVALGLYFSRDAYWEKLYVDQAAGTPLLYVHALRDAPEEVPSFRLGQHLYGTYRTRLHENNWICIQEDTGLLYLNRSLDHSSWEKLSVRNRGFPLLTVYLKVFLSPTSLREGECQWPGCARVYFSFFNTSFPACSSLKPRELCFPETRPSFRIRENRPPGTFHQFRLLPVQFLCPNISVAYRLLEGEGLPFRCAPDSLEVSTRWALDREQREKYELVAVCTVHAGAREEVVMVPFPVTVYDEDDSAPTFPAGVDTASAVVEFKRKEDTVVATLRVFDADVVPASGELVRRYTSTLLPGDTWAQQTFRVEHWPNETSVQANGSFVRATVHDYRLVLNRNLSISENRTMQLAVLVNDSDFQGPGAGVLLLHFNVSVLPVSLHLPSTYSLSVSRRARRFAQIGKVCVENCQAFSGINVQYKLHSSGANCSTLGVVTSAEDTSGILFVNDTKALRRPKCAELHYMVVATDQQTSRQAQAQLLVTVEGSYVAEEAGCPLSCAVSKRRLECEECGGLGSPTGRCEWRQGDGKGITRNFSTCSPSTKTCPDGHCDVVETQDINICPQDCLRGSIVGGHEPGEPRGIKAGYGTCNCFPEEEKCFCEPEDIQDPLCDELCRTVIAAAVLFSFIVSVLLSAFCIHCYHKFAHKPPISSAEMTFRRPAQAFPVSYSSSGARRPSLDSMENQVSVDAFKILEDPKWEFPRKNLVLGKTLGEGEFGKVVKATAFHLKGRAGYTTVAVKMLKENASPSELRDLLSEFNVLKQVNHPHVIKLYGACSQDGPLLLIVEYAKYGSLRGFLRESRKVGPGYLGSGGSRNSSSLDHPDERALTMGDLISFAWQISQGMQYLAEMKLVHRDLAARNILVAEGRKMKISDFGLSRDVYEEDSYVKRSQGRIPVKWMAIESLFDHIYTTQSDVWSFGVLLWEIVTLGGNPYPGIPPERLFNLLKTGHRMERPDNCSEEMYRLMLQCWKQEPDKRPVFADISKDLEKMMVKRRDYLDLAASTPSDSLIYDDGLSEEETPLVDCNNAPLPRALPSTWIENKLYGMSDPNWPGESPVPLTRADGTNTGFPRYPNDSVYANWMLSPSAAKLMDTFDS
The description is as above. The following applies: compound at 10 uM, ATP 1 µM. It counts as biochemical.

The next test deals with T3, RET (G810S/M918T) (Homo sapiens, UniProt P07949, G810S/M918T).
T3 construct: purchased Reaction Biology Corp
T3 sequence (P07949 29-1114 G810S/M918T): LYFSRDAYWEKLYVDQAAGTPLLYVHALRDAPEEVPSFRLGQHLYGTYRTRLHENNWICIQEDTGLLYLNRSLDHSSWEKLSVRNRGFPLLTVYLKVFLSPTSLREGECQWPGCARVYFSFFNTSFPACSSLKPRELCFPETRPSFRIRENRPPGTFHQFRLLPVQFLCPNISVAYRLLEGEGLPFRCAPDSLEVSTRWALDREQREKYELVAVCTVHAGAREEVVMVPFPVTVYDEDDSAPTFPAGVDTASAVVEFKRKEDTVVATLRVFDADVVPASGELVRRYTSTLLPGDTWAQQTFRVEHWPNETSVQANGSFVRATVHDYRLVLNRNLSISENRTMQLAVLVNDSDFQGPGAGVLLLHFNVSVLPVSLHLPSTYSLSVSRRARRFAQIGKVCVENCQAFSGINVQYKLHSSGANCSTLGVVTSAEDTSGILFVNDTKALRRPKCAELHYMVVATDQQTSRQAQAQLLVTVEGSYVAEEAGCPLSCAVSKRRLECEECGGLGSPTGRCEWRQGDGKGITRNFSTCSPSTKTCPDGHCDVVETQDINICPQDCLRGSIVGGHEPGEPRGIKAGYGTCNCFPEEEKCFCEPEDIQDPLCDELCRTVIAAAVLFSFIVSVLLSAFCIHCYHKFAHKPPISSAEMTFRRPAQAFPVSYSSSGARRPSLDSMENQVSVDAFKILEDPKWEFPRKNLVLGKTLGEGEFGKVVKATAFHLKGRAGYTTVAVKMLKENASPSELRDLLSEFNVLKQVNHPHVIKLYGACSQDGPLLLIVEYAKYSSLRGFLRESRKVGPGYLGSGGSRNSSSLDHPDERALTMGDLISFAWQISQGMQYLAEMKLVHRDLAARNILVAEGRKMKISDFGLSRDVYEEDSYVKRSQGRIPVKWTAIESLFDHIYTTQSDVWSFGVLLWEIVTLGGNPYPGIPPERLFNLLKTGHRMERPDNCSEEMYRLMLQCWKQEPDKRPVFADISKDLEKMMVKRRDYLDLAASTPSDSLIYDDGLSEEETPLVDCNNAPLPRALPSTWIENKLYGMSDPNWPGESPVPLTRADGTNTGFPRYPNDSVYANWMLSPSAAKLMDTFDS
The test is described as above. It counts as biochemical. The following applies: compound at 10 uM, ATP 1 µM.

For a further test, the system named is BaF3-RET(V804M). Briefly: Cell proliferation inhibition (GI50), Cell Counting Kit-8, Ba/F3 cell line. It counts as cell-based, rodent. The following applies: Mus musculus, read-out: GI50 of BaF3-RET(V804M). The procedure: To evaluate the inhibitory activity of the compounds represented by Formula I or Formula IV according to the present invention against RET mutation-driven cell growth in the Ba/F3 cell line and against cell growth in the non-small cell lung cancer cell line A-549, the following experiment was performed.
Each cell line was seeded in a 96-well plate at 1×10^4 cells/90 µL/well, and 10 µL/well of culture medium containing each example and intermediate compound or DMSO control at 9 concentrations (1 nM to 100 µM) prepared by 3-fold serial dilutions was added to achieve a final concentration of 0 to 100 µM, followed by incubation for 72 hours in a 37°C, 5% CO2 incubator. After 72 hours of incubation, the compound-treated plates were removed, and Cell Counting Kit-8 solution was added at 10 µL/well and mixed well. The plates were then incubated for 2 hours in a CO2 incubator at 37°C, and the absorbance was measured at 450 nm using a microplate reader.
In addition, the data were expressed as a percentage relative to vehicle-treated cells, and GI50 values were calculated using GraphPad Prism 8.0 (GraphPad Software Inc., San Diego), and the results are shown in Table 8 below. As a control compound, ponatinib, a known RET inhibitor, was treated to calculate the GI50 values.

The test system of another test is A-549. The test can be described thus: Cell proliferation inhibition, Cell Counting Kit-8, non-small cell lung cancer cell line. It counts as cell-based. The following applies: A-549 cell line; 72 hours incubation; test concentration not given.
The next test addresses T4, RET(V804M) (Homo sapiens, UniProt P07949, V804M).
T4 construct: purchased Reaction Biology Corp
The test can be described thus: Kinase panel inhibition, radiolabeled [γ-33P] ATP (Reaction Biology Corp). The class given is biochemical. The following applies: compound at 0.1 uM; ATP 10 µM; read-out: % Enzyme Activity (relative to DMSO controls) V804M.

The target of a further test is T5, RET(V804M)-KIF5B (Homo sapiens, UniProt P07949, V804M).
T5 sequence (P07949 713-1114 V804M): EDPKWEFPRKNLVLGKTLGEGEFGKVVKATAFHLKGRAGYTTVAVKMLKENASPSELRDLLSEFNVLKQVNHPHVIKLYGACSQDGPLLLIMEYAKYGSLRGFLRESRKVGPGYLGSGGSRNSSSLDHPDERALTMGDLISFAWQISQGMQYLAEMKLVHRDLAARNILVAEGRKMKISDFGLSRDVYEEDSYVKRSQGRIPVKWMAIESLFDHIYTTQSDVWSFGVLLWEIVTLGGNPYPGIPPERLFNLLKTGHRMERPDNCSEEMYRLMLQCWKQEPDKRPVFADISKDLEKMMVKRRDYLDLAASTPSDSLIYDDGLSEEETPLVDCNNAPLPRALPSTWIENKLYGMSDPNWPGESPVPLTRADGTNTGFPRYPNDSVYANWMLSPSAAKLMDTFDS
T5 sequence (P33176 2-575 partner): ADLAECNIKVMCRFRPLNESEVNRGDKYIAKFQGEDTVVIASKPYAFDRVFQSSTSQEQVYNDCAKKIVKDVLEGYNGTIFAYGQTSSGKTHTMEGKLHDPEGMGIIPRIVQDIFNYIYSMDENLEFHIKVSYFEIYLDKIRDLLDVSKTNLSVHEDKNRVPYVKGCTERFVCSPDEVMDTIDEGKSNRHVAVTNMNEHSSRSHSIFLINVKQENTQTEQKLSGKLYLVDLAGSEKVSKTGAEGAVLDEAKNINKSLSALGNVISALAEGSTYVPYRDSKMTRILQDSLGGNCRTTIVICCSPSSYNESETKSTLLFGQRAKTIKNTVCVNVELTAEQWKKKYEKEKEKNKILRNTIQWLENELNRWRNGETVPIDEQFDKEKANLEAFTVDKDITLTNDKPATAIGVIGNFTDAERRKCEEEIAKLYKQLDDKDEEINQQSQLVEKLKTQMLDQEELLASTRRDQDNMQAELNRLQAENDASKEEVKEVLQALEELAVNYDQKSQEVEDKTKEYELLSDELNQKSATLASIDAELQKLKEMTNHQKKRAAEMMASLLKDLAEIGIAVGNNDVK
The test is described as above. It counts as biochemical. The following applies: compound at 0.1 uM; ATP 10 µM; read-out: % Enzyme Activity (relative to DMSO controls) RET (V804M )-KIF5B.

Where [1] appears, read: Data 1, read-out: % Enzyme Activity (relative to DMSO controls) RET-CCDC6 (PTC1) Data 1.
Where [2] appears, read: Data 2, read-out: % Enzyme Activity (relative to DMSO controls) RET-CCDC6 (PTC1) Data 2.
Where [3] appears, read: Data 1, read-out: % Enzyme Activity (relative to DMSO controls) RET (G810S/M918T) Data 1.
Setting [4] is: Data 2, read-out: % Enzyme Activity (relative to DMSO controls) RET (G810S/M918T) Data 2.
[5] abbreviates: BaF3, 72 hours incubation, Cell Counting Kit-8.

Read-outs that look alike come from different tables or passages of the source.

T1 sequence (P07949 29-1114 G810R): as the sequence (P07949 29-1114 G810S/M918T) above, with S782R, T890M counted along it
T4 sequence (P07949 29-1114 V804M): as the sequence (P07949 29-1114 G810S/M918T) above, with V776M, S782G, T890M counted along it

For the compound `CNc1cc(-c2ccc(N3CC(Oc4cccc(F)c4)C3)nc2)c2nccnc2c1` [Example 2, 8-(6-(3-(3-fluorophenoxy)azetidin-1-yl)pyridin-3-yl)-N-methylquinoxalin-6-amine], the remaining activity at 0.1 µM on RET(G810R) was found to be 77.3%. The remaining activity at 10 µM at RET-CCDC6 (PTC1) (setting [1]) was 1.38%; at RET-CCDC6 (PTC1) (setting [2]) it was 0.23%; on RET (G810S/M918T) (setting [3]), 0.05%; at RET (G810S/M918T) (setting [4]), -0.43%. The GI50 with BaF3-RET(V804M) (setting [5]) was found to be 943 nM. For the same compound, the “Cell Proliferation (% of control)” value in the test with A-549 is 18.59%.
Consider `CNc1cc(-c2ccc(N3CC[C@H](NC(=O)c4ccccc4F)C3)nc2)c2nccnc2c1` [Example 11, (S)-2-fluoro-N-(1-(5-(7-(methylamino)quinoxalin-5-yl)pyridin-2-yl)pyrrolidin-3-yl)benzamide], for which, at RET(G810R), the remaining activity at 0.1 µM worked out at 56%. Also, the remaining activity at 10 µM is 1.36% on RET-CCDC6 (PTC1) (setting [1]), 1.07% at RET-CCDC6 (PTC1) (setting [2]), -0.84% at RET (G810S/M918T) (setting [3]) and -0.85% at RET (G810S/M918T) (setting [4]). In addition, the GI50 with BaF3-RET(V804M) (setting [5]) worked out at 2120 nM. Besides, the “Cell Proliferation (% of control)” value with A-549 amounted to 20.80%.
In the case of `CCNc1cc(-c2ccc(N3CC[C@H](NC(=O)c4ccccc4F)C3)nc2)c2nccnc2c1` [Example 12, (S)-N-(1-(5-(7-(ethylamino)quinoxalin-5-yl)pyridin-2-yl)pyrrolidin-3-yl)-2-fluorobenzamide], the remaining activity at 0.1 µM was found to be 59.9% at RET(G810R), 2.27% on RET(V804M) and 5.5% at RET(V804M)-KIF5B. The remaining activity at 10 µM on RET-CCDC6 (PTC1) (setting [1]) was 1.25%; on RET-CCDC6 (PTC1) (setting [2]) it was 1.01%; at RET (G810S/M918T) (setting [3]), 2.65%; at RET (G810S/M918T) (setting [4]) it was 0.69%. Also, the GI50 with BaF3-RET(V804M) (setting [5]) was 1060 nM. Moreover, the “Cell Proliferation (% of control)” value with A-549 is given as 41.67%.
Take `Cc1ccc(C(=O)Nc2ccc(CN3CCN(C)CC3)c(C(F)(F)F)c2)cc1C#Cc1cnc2cccnn12` [Ponatinib, ponatinib, reference compound]: the GI50 in the test on BaF3-RET(V804M) (BaF3, 72 h) was found to be 115 nM. Moreover, the “Cell Proliferation (% of control)” value in the test on A-549 is given as -1.99%.
